Results published in BigSolDB 2.1.

SMILES: O=c1cc(-c2ccc(O)c(O)c2)oc2cc(O)cc(O)c12
- solubility (mole fraction) (in DMSO, 298.2 K): 0.0515
- solubility (mole fraction) (in DMSO, 303.2 K): 0.0564
- solubility (mole fraction) (in DMSO, 308.2 K): 0.0615
- solubility (mole fraction) (in DMSO, 313.2 K): 0.0665
- solubility (mole fraction) (in DMSO, 318.2 K): 0.0715
- solubility (mole fraction) (in PEG-400, 298.2 K): 0.1
- solubility (mole fraction) (in PEG-400, 303.2 K): 0.106
- solubility (mole fraction) (in PEG-400, 308.2 K): 0.113
- solubility (mole fraction) (in PEG-400, 313.2 K): 0.119
- solubility (mole fraction) (in PEG-400, 318.2 K): 0.127
- solubility (mole fraction) (in ethanol, 298.2 K): 0.00188
- solubility (mole fraction) (in ethanol, 303.2 K): 0.00209
- solubility (mole fraction) (in ethanol, 308.2 K): 0.00241
- solubility (mole fraction) (in ethanol, 313.2 K): 0.00273
- solubility (mole fraction) (in ethanol, 318.2 K): 0.00308
- solubility (mole fraction) (in ethyl acetate, 298.2 K): 0.00261
- solubility (mole fraction) (in ethyl acetate, 303.2 K): 0.00313
- solubility (mole fraction) (in ethyl acetate, 308.2 K): 0.00368
- solubility (mole fraction) (in ethyl acetate, 313.2 K): 0.00438
- solubility (mole fraction) (in ethyl acetate, 318.2 K): 0.00511
- solubility (mole fraction) (in ethylene glycol, 298.2 K): 0.0013
- solubility (mole fraction) (in ethylene glycol, 303.2 K): 0.00158
- solubility (mole fraction) (in ethylene glycol, 308.2 K): 0.0019
- solubility (mole fraction) (in ethylene glycol, 313.2 K): 0.00229
- solubility (mole fraction) (in ethylene glycol, 318.2 K): 0.00268
- solubility (mole fraction) (in isopropanol, 298.2 K): 0.00251
- solubility (mole fraction) (in isopropanol, 303.2 K): 0.00278
- solubility (mole fraction) (in isopropanol, 308.2 K): 0.00316
- solubility (mole fraction) (in isopropanol, 313.2 K): 0.00366
- solubility (mole fraction) (in isopropanol, 318.2 K): 0.00414
- solubility (mole fraction) (in methanol, 298.2 K): 0.00047
- solubility (mole fraction) (in methanol, 303.2 K): 0.000537
- solubility (mole fraction) (in methanol, 308.2 K): 0.000638
- solubility (mole fraction) (in methanol, 313.2 K): 0.000727
- solubility (mole fraction) (in methanol, 318.2 K): 0.000816
- solubility (mole fraction) (in n-butanol, 298.2 K): 0.00335
- solubility (mole fraction) (in n-butanol, 303.2 K): 0.00369
- solubility (mole fraction) (in n-butanol, 308.2 K): 0.00415
- solubility (mole fraction) (in n-butanol, 313.2 K): 0.00477
- solubility (mole fraction) (in n-butanol, 318.2 K): 0.00536
- solubility (mole fraction) (in propylene glycol, 298.2 K): 0.00212
- solubility (mole fraction) (in propylene glycol, 303.2 K): 0.00249
- solubility (mole fraction) (in propylene glycol, 308.2 K): 0.00289
- solubility (mole fraction) (in propylene glycol, 313.2 K): 0.00336
- solubility (mole fraction) (in propylene glycol, 318.2 K): 0.00389
- solubility (mole fraction) (in sec-butanol, 298.2 K): 0.0035
- solubility (mole fraction) (in sec-butanol, 303.2 K): 0.00381
- solubility (mole fraction) (in sec-butanol, 308.2 K): 0.00435
- solubility (mole fraction) (in sec-butanol, 313.2 K): 0.00489
- solubility (mole fraction) (in sec-butanol, 318.2 K): 0.00553
- solubility (mole fraction) (in transcutol, 298.2 K): 0.0309
- solubility (mole fraction) (in transcutol, 303.2 K): 0.0331
- solubility (mole fraction) (in transcutol, 308.2 K): 0.0354
- solubility (mole fraction) (in transcutol, 313.2 K): 0.0378
- solubility (mole fraction) (in transcutol, 318.2 K): 0.0401
- solubility (mole fraction) (in water, 298.2 K): 1.75e-06
- solubility (mole fraction) (in water, 303.2 K): 2.24e-06
- solubility (mole fraction) (in water, 308.2 K): 2.83e-06
- solubility (mole fraction) (in water, 313.2 K): 3.49e-06
- solubility (mole fraction) (in water, 318.2 K): 4.17e-06
